From the supplement of paper PMC10307832

Tests used:
Test in all cases: relative viability (nuclei count vs DMSO), 5 days (fraction); higher = more cells survive
CX-5461 + Tozasertib = compound: Cc1cnc(CNC(=O)c2c(=O)c3ccc(N4CCCN(C)CC4)nc3n3c2sc2ccccc23)cn1 [CX-5461] + Cc1cc(Nc2cc(N3CCN(C)CC3)nc(Sc3ccc(NC(=O)C4CC4)cc3)n2)n[nH]1 [Tozasertib] (partner 0.1 µM)
Summary of the method: (§1)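 For relative viability, nuclei counts in treated wells were divided by those in vehicle wells. Lung cancer cell lines had been pin-tool dosed in 1536-well plates the day after seeding and cultured for 5 days, then fixed and stained in one step (final 0.05% Triton X-100, 1% formaldehyde, 1 ug/ml Hoechst) and imaged at 4×. Doses were one drug alone or a fixed anchor-drug dose plus five library-drug doses (not always all listed) in √10 steps, and values are duplicate-plate medians.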

IMD-0354 + Linsitinib = compound: O=C(Nc1cc(C(F)(F)F)cc(C(F)(F)F)c1)c1cc(Cl)ccc1O [IMD-0354] + C[C@]1(O)C[C@@H](c2nc(-c3ccc4ccc(-c5ccccc5)nc4c3)c3c(N)nccn32)C1 [Linsitinib] (partner 1 µM)
Summary of the method: as §1

IMD-0354 + Navitoclax = compound: O=C(Nc1cc(C(F)(F)F)cc(C(F)(F)F)c1)c1cc(Cl)ccc1O [IMD-0354] + CC1(C)CCC(c2ccc(Cl)cc2)=C(CN2CCN(c3ccc(C(=O)NS(=O)(=O)c4ccc(N[C@H](CCN5CCOCC5)CSc5ccccc5)c(S(=O)(=O)C(F)(F)F)c4)cc3)CC2)C1 [Navitoclax] (partner 0.5 µM)
Summary of the method: as §1

IMD-0354 + Palbociclib = compound: O=C(Nc1cc(C(F)(F)F)cc(C(F)(F)F)c1)c1cc(Cl)ccc1O [IMD-0354] + CC(=O)c1c(C)c2cnc(Nc3ccc(N4CCNCC4)cn3)nc2n(C2CCCC2)c1=O [Palbociclib] (partner 0.5 µM)
Summary of the method: as §1

Cell Line | relative viability (CX-5461 + Tozasertib; first compound 0.01 µM) | relative viability (CX-5461 + Tozasertib; first compound 0.03162 µM) | relative viability (CX-5461 + Tozasertib; first compound 0.1 µM) | relative viability (CX-5461 + Tozasertib; first compound 0.3162 µM) | relative viability (CX-5461 + Tozasertib; first compound 1 µM) | relative viability (IMD-0354 + Linsitinib; first compound 0.04 µM) | relative viability (IMD-0354 + Linsitinib; first compound 0.1265 µM) | relative viability (IMD-0354 + Linsitinib; first compound 0.4 µM) | relative viability (IMD-0354 + Linsitinib; first compound 1.265 µM) | relative viability (IMD-0354 + Linsitinib; first compound 4 µM) | relative viability (IMD-0354 + Navitoclax; first compound 0.04 µM) | relative viability (IMD-0354 + Navitoclax; first compound 0.1265 µM) | relative viability (IMD-0354 + Navitoclax; first compound 0.4 µM) | relative viability (IMD-0354 + Navitoclax; first compound 1.265 µM) | relative viability (IMD-0354 + Navitoclax; first compound 4 µM) | relative viability (IMD-0354 + Palbociclib; first compound 0.04 µM) | relative viability (IMD-0354 + Palbociclib; first compound 0.1265 µM) | relative viability (IMD-0354 + Palbociclib; first compound 0.4 µM) | relative viability (IMD-0354 + Palbociclib; first compound 1.265 µM) | relative viability (IMD-0354 + Palbociclib; first compound 4 µM)
NCI-H3122 | 0.389 | 0.537 | 0.352 | 0.314 | 0.262 | 1.06 | 1.12 | 0.742 | 0.573 | 0.15 | 1.01 | 1.09 | 0.829 | 0.987 | 0.155 | 0.18 | 0.185 | 0.213 | 0.163 | 0.135
SK-LU-1 | 0.33 | 0.339 | 0.247 |  | 0.189 | 1.41 | 0.863 | 0.621 | 0.24 | 0.264 | 1.26 | 1.17 | 0.223 | 0.386 | 0.126 | 0.398 | 0.394 | 0.319 | 0.239 | 0.296
COR-L23 | 0.246 | 0.202 | 0.176 | 0.182 | 0.119 | 0.764 | 0.73 | 0.388 | 0.116 | 0.158 | 0.891 | 0.961 | 0.375 | 0.0982 | 0.147 | 0.303 | 0.278 | 0.185 | 0.122 | 0.12
NCI-H2087 | 0.208 | 0.276 | 0.243 | 0.265 | 0.159 | 0.887 | 0.659 | 0.308 | 0.127 | 0.203 | 0.918 | 0.815 | 0.363 | 0.111 | 0.158 | 0.238 | 0.196 | 0.21 | 0.104 | 0.0948
LC-2-ad | 0.377 | 0.446 | 0.469 | 0.411 | 0.364 | 1.02 | 0.844 | 0.369 | 0.108 | 0.123 | 0.408 | 0.395 | 0.199 | 0.0893 | 0.105 | 0.531 | 0.451 | 0.333 | 0.287 | 0.181
NCI-H1915 | 0.426 | 0.471 | 0.417 | 0.312 | 0.426 | 0.968 | 1.12 | 0.944 | 0.866 | 0.255 | 0.708 | 0.857 | 0.412 | 0.661 | 0.219 | 0.461 | 0.489 | 0.424 | 0.234 | 0.143
NCI-H1944 | 0.259 | 0.271 | 0.244 | 0.228 | 0.248 | 1.08 | 1.12 |  | 1.24 | 0.111 | 0.962 | 1.13 |  | 1.01 | 0.125 | 0.289 | 0.324 | 0.341 | 0.382 | 0.139
NCI-H2023 | 0.306 | 0.325 | 0.237 | 0.283 | 0.0913 | 0.81 | 0.569 | 0.558 | 0.197 | 0.121 | 1.16 | 1.05 | 0.561 | 0.257 | 0.121 | 0.495 | 0.346 | 0.273 | 0.316 | 0.241
COR-L 105 | 0.342 | 0.339 | 0.4 | 0.371 | 0.306 | 1.05 | 0.682 | 0.638 | 0.613 | 0.265 | 0.731 | 0.684 | 0.644 | 0.374 | 0.269 | 0.404 | 0.395 | 0.394 | 0.33 | 0.284
RERF-LC-KJ | 0.449 | 0.516 | 0.287 | 0.509 | 0.245 | 0.948 | 0.944 | 0.66 | 0.298 | 0.208 | 0.843 | 1.1 | 0.496 | 0.109 | 0.228 | 1.29 | 1.1 | 0.776 | 0.642 | 0.19
LXF-289 | 0.2 | 0.224 | 0.16 | 0.179 | 0.179 | 1.04 | 0.932 | 0.768 | 0.459 | 0.108 | 0.927 | 0.88 | 0.789 | 0.666 | 0.0776 | 0.565 | 0.61 | 0.454 | 0.435 | 0.0922
PC-14 | 0.71 | 0.642 | 0.618 | 0.293 | 0.492 | 1.01 | 0.841 | 0.604 | 0.403 | 0.175 | 1.04 | 0.937 | 0.425 | 0.192 | 0.103 | 0.574 | 0.533 | 0.317 | 0.129 | 0.189
NCI-H1666 | 0.629 | 0.609 | 0.488 | 0.534 | 0.406 | 0.747 | 0.957 | 0.609 | 0.17 | 0.299 | 1.09 | 0.932 | 0.83 | 0.153 | 0.174 | 0.737 | 0.616 | 0.601 | 0.57 | 0.495
NCI-H2085 | 0.734 | 0.849 | 0.785 | 0.752 | 0.798 | 0.786 | 0.976 | 0.687 | 0.497 | 0.278 | 1.17 | 1.16 | 0.859 | 0.62 | 0.251 | 0.461 | 0.439 | 0.433 | 0.281 | 0.393
NCI-H1734 | 0.261 | 0.293 | 0.266 | 0.209 | 0.238 | 1.04 | 0.936 | 0.513 | 0.596 | 0.231 | 0.905 | 0.86 | 0.446 | 0.412 | 0.133 | 0.352 | 0.352 | 0.314 | 0.232 | 0.196
NCI-H2126 | 0.842 | 0.842 | 0.758 | 0.765 | 0.668 | 0.644 | 0.685 | 0.715 | 0.577 | 0.316 | 0.905 | 0.817 | 0.673 | 0.79 | 0.269 | 0.35 | 0.361 | 0.364 | 0.316 | 0.311
